PubChem BioAssay (NCI)
Values joined by “and” are separate entries in the source; they are usually repeats but may differ in a detail not shown here. Equal entries are not always repeated.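 Dose response: 5 concentrations. Exposure: 48 h. Format: 96-well plates. Endpoint: linear interpolation; highest concentration if not reached. GI50 marks 50% less growth. TGI: concentration producing complete growth inhibition.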 Where a SMILES comes first, the peptide text is derived from it. [ ]: non-standard residue; d: D form. Orn = NCCC[CH](N)C(=O)O

How the values were obtained:
Assay in all cases: DTP human tumour cell line panel, 48 h
HOP-92 NSCLC = system: HOP-92 NSCLC
CCRF-CEM leukemia = system: CCRF-CEM leukemia
NCI-H460 lung = system: NCI-H460 lung
KM12 colon = system: KM12 colon
SN12C renal = system: SN12C renal
OVCAR-4 ovarian = system: OVCAR-4 ovarian
HOP-62 NSCLC = system: HOP-62 NSCLC
HL-60(TB) leukemia = system: HL-60(TB) leukemia
SK-MEL-28 melanoma = system: SK-MEL-28 melanoma
SK-OV-3 ovarian = system: SK-OV-3 ovarian

Row | SMILES | GI50 (HOP-92 NSCLC) | TGI (HOP-92 NSCLC) | GI50 (CCRF-CEM leukemia) | TGI (CCRF-CEM leukemia) | GI50 (NCI-H460 lung) | TGI (NCI-H460 lung) | GI50 (KM12 colon) | TGI (KM12 colon) | GI50 (SN12C renal) | TGI (SN12C renal) | GI50 (OVCAR-4 ovarian) | TGI (OVCAR-4 ovarian) | GI50 (HOP-62 NSCLC) | TGI (HOP-62 NSCLC) | GI50 (HL-60(TB) leukemia) | TGI (HL-60(TB) leukemia) | GI50 (SK-MEL-28 melanoma) | TGI (SK-MEL-28 melanoma) | GI50 (SK-OV-3 ovarian) | TGI (SK-OV-3 ovarian)
1 | CC(=O)/C=C/c1ccc(N(C)Cc2ccc(C(C)(C)C)cc2)cc1 | 129 µM | 267 µM | 164 µM | 903 µM | 144 µM | 376 µM | 115 µM | 317 µM | 141 µM | 300 µM | 125 µM | 330 µM | 194 µM | 550 µM | 69.1 µM | 277 µM | 134 µM | 279 µM | 217 µM | 709 µM
2 | O=C(Nc1ncc(Cc2ccc(Cl)cc2)s1)c1ccc2c(c1)OCCO2 | 2.12 µM | > 100 µM | 0.0639 µM | > 100 µM | 0.0404 µM | 38.7 µM | 0.0414 µM | > 58 µM | 0.155 µM | > 100 µM | 0.547 µM | > 52.1 µM | 0.0948 µM | > 41.6 µM | 0.0537 µM | – | 1.02 µM | > 100 µM | 0.183 µM | 92.9 µM
3 | COc1ccc2cc(C(=O)/C=C/c3ccccc3OC)ccc2c1 | > 22.6 µM | > 50.4 µM | 1.16 µM | 7.52 µM | – | > 51.7 µM | 1.6 µM | 9.51 µM | 1.97 µM | 6.82 µM | 18.9 µM | > 100 µM | 7.51 µM | 25.6 µM | 2.55 µM | 8.14 µM | 21.3 µM | > 94.8 µM | 12.7 µM | > 100 µM
4 | C(#Cc1ccccc1C#Cc1ccccn1)c1ccc(OCCCCCCOc2ccc(C#Cc3ccccc3C#Cc3ccccn3)cc2)cc1 | 4.91 µM | 12 µM | 0.0276 µM | 0.151 µM | 1.62 µM | 6.65 µM | 1.65 µM | 8.34 µM | 2.35 µM | 11.6 µM | 2.7 µM | 11.5 µM | 6.51 µM | 14.6 µM | 0.108 µM | 1.44 µM | 6.18 µM | 12.4 µM | 7.87 µM | 20.1 µM
5 | Cn1c(-c2ccccc2)c/c(=N\NS(C)(=O)=O)c2cc(S(=O)(=O)O)ccc21 | – | > 100 µM | – | > 100 µM | – | > 100 µM | – | > 100 µM | – | > 100 µM | – | > 100 µM | – | > 100 µM | – | > 100 µM | – | > 100 µM | – | > 100 µM
6 | O=C(Nc1cccc(-n2cc(-c3ccncc3)c(-c3ccc(O)c(Cl)c3)n2)c1)Nc1ccc(Cl)c(C(F)(F)F)c1 | 0.455 µM | 2.93 µM | 1.77 µM | 6.31 µM | 2.56 µM | 9.51 µM | 1.61 µM | 3.26 µM | 2.99 µM | 13.4 µM | 2.77 µM | 9.97 µM | 3.15 µM | 9.77 µM | 2.55 µM | 6.38 µM | 1.67 µM | 3.8 µM | 3.14 µM | 9.82 µM
7 | Cn1cc(C2=C(c3cccc(NCC(O)CO)c3)C(=O)NC2=O)c2cc(Cl)ccc21 (stereo not given) | 8.16 µM | 14.1 µM | 3.92 µM | > 21.8 µM | 5.45 µM | > 25 µM | 2.45 µM | 9.5 µM | 4.62 µM | 16.5 µM | 1.87 µM | 11.6 µM | 4.9 µM | 18 µM | 6.9 µM | 17.1 µM | 5.68 µM | 16.1 µM | 4.78 µM | > 23 µM
8 | [O-][N+]1=C(c2ccccc2)COc2ccccc21 | – | > 100 µM | – | > 100 µM | – | > 100 µM | – | > 100 µM | – | > 100 µM | – | > 100 µM | – | > 100 µM | – | > 100 µM | – | > 100 µM | – | > 100 µM
9 | O=C(CCc1cc(-c2ccco2)n(-c2ccc([N+](=O)[O-])cc2[N+](=O)[O-])n1)Nc1ccccc1 | – | > 100 µM | – | > 100 µM | – | > 100 µM | – | > 100 µM | – | > 100 µM | – | > 100 µM | – | > 100 µM | – | > 100 µM | – | > 100 µM | – | > 100 µM
10 | COc1cc([C@@H]2c3cc4c(cc3[C@H](O)[C@H]3COC(=O)[C@@H]23)OCO4)cc(OC)c1OC | – | > 88.6 µM | 0.374 µM and 0.302 µM | > 100 µM | 0.371 µM and 0.138 µM | > 10 µM and 3.07 µM | 0.343 µM and 0.158 µM | > 8.5 µM and 0.967 µM | 0.677 µM and 0.4 µM | > 100 µM | 1.03 µM and 4.92 µM | > 100 µM | 0.533 µM and 0.226 µM | > 100 µM | 0.293 µM and 0.454 µM | > 2.81 µM and 64.1 µM | 0.561 µM and 0.374 µM | > 100 µM | 0.529 µM and 0.301 µM | –
11 | CC(C)CC1NC(=O)C(CCCN)NC(=O)C(C(C)C)NC(=O)C2CCCN2C(=O)C(Cc2ccccc2)NC(=O)C(CC(C)C)NC(=O)C(CCCN)NC(=O)C(C(C)C)NC(=O)C2CCCN2C(=O)C(Cc2ccccc2)NC1=O (stereo not given) (cyclo(FPV[Orn]LFPV[Orn]L); configuration not given here) | 0.00661 µM and 0.0126 µM | 0.0204 µM and 0.0545 µM | 0.00814 µM | 0.32 µM | 0.0111 µM and 0.0287 µM | 0.0385 µM and 0.107 µM | 0.00513 µM | 0.363 µM and 1.04 µM | 0.0111 µM and 0.0288 µM | 0.419 µM and 1.13 µM | 0.0133 µM | – | 0.00595 µM | 0.418 µM and 1.31 µM | 0.0151 µM and 0.0371 µM | 0.104 µM and 0.251 µM | 0.0395 µM | 0.962 µM and 1.63 µM | 0.0108 µM | 0.505 µM and 1.39 µM
12 | Cn1cc(-c2nc(-c3cn(C)c4ncccc34)cs2)c2cc(F)ccc21 | 2.31 µM | 8.14 µM | 2.41 µM | > 100 µM | 1.12 µM | 18.9 µM | 0.61 µM | 14.6 µM | 3.63 µM | > 100 µM | 0.746 µM | > 100 µM | 2.67 µM | 84.7 µM | 1.67 µM | 88.7 µM | 2.42 µM | > 100 µM | 2.4 µM | 21.2 µM
13 | COC(=O)/C(Cl)=C1/CC1COCc1ccccc1 (stereo not given) | – | 50.4 µM | – | 43.5 µM | – | > 100 µM | – | 77.4 µM | – | > 100 µM | – | 84.2 µM | – | > 100 µM | – | 38.7 µM | – | 47.4 µM | – | > 100 µM
14 | Cc1cc(Cl)ccc1Nc1nc(C(F)(F)F)ccc1C(=O)N/N=C/c1ccc(F)cc1 | 1.75 µM | 6.14 µM | 0.528 µM | 5.9 µM | 1.95 µM | 6.04 µM | 1.99 µM | 5.33 µM | 2.56 µM | 11.4 µM | 0.513 µM | 12.9 µM | 1.68 µM | 6.65 µM | 1.77 µM | 5.01 µM | 2.01 µM | 10.6 µM | 1.34 µM | 6.58 µM
